Measured values from ChEMBL document CHEMBL1150034, “Synthesis of peptidyl acetals as inhibitors of prolyl endopeptidase” (Bioorg Med Chem Lett, 1995).

Biological target: T1, Prolyl endopeptidase (Homo sapiens, UniProt P48147)
T1 sequence (P48147 whole entry): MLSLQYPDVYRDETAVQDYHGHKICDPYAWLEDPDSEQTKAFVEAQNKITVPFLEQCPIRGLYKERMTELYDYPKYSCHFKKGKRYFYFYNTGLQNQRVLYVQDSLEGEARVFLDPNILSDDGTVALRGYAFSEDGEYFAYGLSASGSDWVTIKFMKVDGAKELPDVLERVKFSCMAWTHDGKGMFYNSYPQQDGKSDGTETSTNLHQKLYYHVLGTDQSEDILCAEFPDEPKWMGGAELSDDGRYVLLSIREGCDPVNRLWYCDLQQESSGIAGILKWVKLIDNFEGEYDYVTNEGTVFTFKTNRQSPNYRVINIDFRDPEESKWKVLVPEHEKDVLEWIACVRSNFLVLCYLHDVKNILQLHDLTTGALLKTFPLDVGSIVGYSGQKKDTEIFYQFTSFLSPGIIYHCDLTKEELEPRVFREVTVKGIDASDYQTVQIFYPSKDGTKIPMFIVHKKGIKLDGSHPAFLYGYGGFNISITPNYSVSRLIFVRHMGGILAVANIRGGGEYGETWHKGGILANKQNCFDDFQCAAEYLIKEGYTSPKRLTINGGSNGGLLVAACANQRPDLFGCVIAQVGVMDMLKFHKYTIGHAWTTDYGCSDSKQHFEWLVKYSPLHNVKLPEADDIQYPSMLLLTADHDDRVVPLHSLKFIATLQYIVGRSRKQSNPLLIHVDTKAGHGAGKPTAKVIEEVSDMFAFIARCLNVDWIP
Assay: Compound was evaluated for the inhibition of prolyl endopeptidase (PEP) purified from human peripheral blood mononuclear cells

SMILES | IC50
COC(OC)C1CSCN1C(=O)C1CSCN1C(=O)OCc1ccccc1 (configuration not stated) | 2.6 µM
COCC1COC(C2CCCN2C(=O)C2CCCN2C(=O)OCc2ccccc2)O1 (configuration not stated) | 6.5 µM
